The record followed here is article PMC12041489 (Scientific Reports, 2025).

Where only a bound is given, the exact number is not on record here.

The target of this test is mushroom tyrosinase (Agaricus bisporus, UniProt C7FF04). Briefly: biochemical.
Chain of mushroom tyrosinase (C7FF04 1-392 limits assumed): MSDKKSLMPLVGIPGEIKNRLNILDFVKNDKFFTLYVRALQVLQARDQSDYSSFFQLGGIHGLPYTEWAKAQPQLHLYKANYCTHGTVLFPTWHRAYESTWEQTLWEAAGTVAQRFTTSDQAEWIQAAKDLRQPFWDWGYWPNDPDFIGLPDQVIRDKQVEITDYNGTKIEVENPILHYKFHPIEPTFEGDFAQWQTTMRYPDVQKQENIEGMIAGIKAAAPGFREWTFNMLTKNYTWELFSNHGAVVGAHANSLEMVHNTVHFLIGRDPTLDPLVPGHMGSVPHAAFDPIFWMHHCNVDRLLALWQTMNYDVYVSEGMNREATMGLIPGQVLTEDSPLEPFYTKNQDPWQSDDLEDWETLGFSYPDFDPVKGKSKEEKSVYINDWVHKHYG

For orientation: IC50 means the concentration at which inhibition is half-maximal. A high value points to weaker potency. As to `O=C(Nc1nnc(SCc2cn(Cc3cc(=O)c(O)co3)nn2)s1)c1ccccc1` [Compound 6a, N-(5-(((1-((5-hydroxy-4-oxo-4H-pyran-2-yl)methyl)-1H-1,2,3-triazol-4-yl)meth-yl)thio)-1,3,4-thiadiazol-2-yl)benzamide], the IC50 amounted to 20.59 ± 0.037 µM.
With `Cc1ccccc1C(=O)Nc1nnc(SCc2cn(Cc3cc(=O)c(O)co3)nn2)s1` [Compound 6b, N-(5-(((1-((5-hydroxy-4-oxo-4H-pyran-2-yl)methyl)-1H-1,2,3-triazol-4-yl)meth-yl)thio)-1,3,4-thiadiazol-2-yl)-2-methylbenzamide] the figure was over 200 µM; with `Cc1cccc(C(=O)Nc2nnc(SCc3cn(Cc4cc(=O)c(O)co4)nn3)s2)c1` [Compound 6c, N-(5-(((1-((5-hydroxy-4-oxo-4H-pyran-2-yl)methyl)-1H-1,2,3-triazol-4-yl)meth-yl)thio)-1,3,4-thiadiazol-2-yl)-3-methylbenzamide], over 200 µM; with `Cc1ccc(C(=O)Nc2nnc(SCc3cn(Cc4cc(=O)c(O)co4)nn3)s2)cc1` [Compound 6d, N-(5-(((1-((5-hydroxy-4-oxo-4H-pyran-2-yl)methyl)-1H-1,2,3-triazol-4-yl)meth-yl)thio)-1,3,4-thiadiazol-2-yl)-4-methylbenzamide], over 200 µM.
`O=C(Nc1nnc(SCc2cn(Cc3cc(=O)c(O)co3)nn2)s1)c1ccc(Cl)cc1` [Compound 6e, 4–CHloro-N-(5-(((1-((5-hydroxy-4-oxo-4H-pyran-2-yl)methyl)-1H-1,2,3-triazol-4-yl)methyl)thio)-1,3,4-thiadiazol-2-yl)benzamide] showed an IC50 of 6.073 ± 0.035 µM.
`O=C(Nc1nnc(SCc2cn(Cc3cc(=O)c(O)co3)nn2)s1)c1ccc(F)cc1` [Compound 6g, 4-fluoro-N-(5-(((1-((5-hydroxy-4-oxo-4H-pyran-2-yl)methyl)-1H-1,2,3-triazol-4-yl)methyl)thio)-1,3,4-thiadiazol-2-yl)benzamide] showed an IC50 of 8.24 ± 0.023 µM.
`COc1ccc(C(=O)Nc2nnc(SCc3cn(Cc4cc(=O)c(O)co4)nn3)s2)cc1` [Compound 6h, N-(5-(((1-((5-hydroxy-4-oxo-4H-pyran-2-yl)methyl)-1H-1,2,3-triazol-4-yl)meth-yl)thio)-1,3,4-thiadiazol-2-yl)-4-methoxybenzamide]: half-maximal inhibition (IC50) was put at 5.56 ± 0.078 µM.
`Nc1ccc(C(=O)Nc2nnc(SCc3cn(Cc4cc(=O)c(O)co4)nn3)s2)cc1` [Compound 6i, 4-amino-N-(5-(((1-((5-hydroxy-4-oxo-4H-pyran-2-yl)methyl)-1H-1,2,3-triazol-4-yl)methyl)thio)-1,3,4-thiadiazol-2-yl)benzamide] had an IC50 of 16.31 ± 0.016 µM.
In turn, `O=C(Cc1ccc(Cl)cc1)Nc1nnc(SCc2cn(Cc3cc(=O)c(O)co3)nn2)s1` [Compound 6m, 2-(4–CHlorophenyl)-N-(5-(((1-((5-hydroxy-4-oxo-4H-pyran-2-yl)methyl)-1H-1,2,3-triazol-4-yl)methyl)thio)-1,3,4-thiadiazol-2-yl)acetamide] gave an IC50 of 10.17 ± 0.032 µM.
In the case of `O=C(Cc1ccc(Br)cc1)Nc1nnc(SCc2cn(Cc3cc(=O)c(O)co3)nn2)s1` [Compound 6n, 2-(4-bromophenyl)-N-(5-(((1-((5-hydroxy-4-oxo-4H-pyran-2-yl)methyl)-1H-1,2,3-triazol-4-yl)methyl)thio)-1,3,4-thiadiazol-2-yl)acetamide], the IC50 was 12.36 ± 0.039 µM.
In turn, `O=C(Cc1ccc(F)cc1)Nc1nnc(SCc2cn(Cc3cc(=O)c(O)co3)nn2)s1` [Compound 6o, 2-(4-fluorophenyl)-N-(5-(((1-((5-hydroxy-4-oxo-4H-pyran-2-yl)methyl)-1H-1,2,3-triazol-4-yl)methyl)thio)-1,3,4-thiadiazol-2-yl)acetamide] returned an IC50 of 11.98 ± 0.022 µM.
Next, `O=Cc1cccc(OCc2cn(Cc3cc(=O)c(O)co3)nn2)c1` [Compound 13a, 3-((1-((5-hydroxy-4-oxo-4H-pyran-2-yl)methyl)-1H-1,2,3-triazol-4-yl)methoxy)-benzaldehyde]: 2.474 ± 0.023 µM.
